≈ marks a conversion by molar mass, not a printed value.
Tests used:
Staphylococcus aureus = experiment: In vitro antibacterial activity against methicillin-sensitive Staphylococcus aureus A15090; format: functional
Enterococcus faecalis = experiment: In vitro antibacterial activity against methicillin-sensitive Enterococcus faecalis A20688; format: functional
Mus musculus = experiment: In vivo efficacy (PD50) against lethal Staphylococcus aureus systemic infection model in mice; format: functional; conditions: read-out: PD50
[1] = Equilibrium water solubility at pH 3.4; format: physicochemical
Streptococcus pneumoniae = experiment: In vitro antibacterial activity against penicillin-resistant Streptococcus pneumoniae A28272; format: functional
[2] = Equilibrium water solubility at pH 3.0; format: physicochemical
[3] = Equilibrium water solubility at pH 3.1; format: physicochemical

Row | Compound | MIC (Staphylococcus aureus) | MIC (Enterococcus faecalis) | ED50 (Mus musculus) | solubility thermodynamic [1] | MIC (Streptococcus pneumoniae) | solubility thermodynamic [2] | solubility thermodynamic [3]
1 | CO/C(C)=C1/NC(=O)[C@H]([C@@H](C)O)NC(=O)c2csc(n2)-c2cc(O)c(-c3nc(C(=O)NC(CNCCc4ccccn4)C(N)=O)cs3)nc2-c2csc(n2)C2COC(=O)c3c4c5c(cccc5n3O)COC(=O)[C@@H](O[C@H]3C[C@](C)(O)[C@H](N(C)C)[C@H](C)O3)[C@@H](OC4)[C@H](NC(=O)c3csc1n3)c1nc(cs1)C(=O)N2 (stereo partly drawn) | 1 µg/mL (≈ 0.641 µM) | 1 µg/mL (≈ 0.641 µM) | 2.8 mg/kg | > 10000 µg/mL | 0.25 µg/mL (≈ 0.16 µM) |  | 
2 | CO/C(C)=C1/NC(=O)[C@H]([C@@H](C)O)NC(=O)c2csc(n2)-c2cc(O)c(-c3nc(C(=O)NC(CN4CCN(CCN5CCOCC5)CC4)C(N)=O)cs3)nc2-c2csc(n2)[C@@H]2COC(=O)c3c4c5c(cccc5n3O)COC(=O)[C@@H](O[C@H]3C[C@](C)(O)[C@H](N(C)C)[C@H](C)O3)[C@@H](OC4)[C@H](NC(=O)c3csc1n3)c1nc(cs1)C(=O)N2 (stereo partly drawn) | 0.25 µg/mL (≈ 0.153 µM) | 0.5 µg/mL (≈ 0.305 µM) | 1.4 mg/kg |  | 0.06 µg/mL (≈ 0.0367 µM) | > 12300 µg/mL | 
3 | CO/C(C)=C1/NC(=O)[C@H]([C@@H](C)O)NC(=O)c2csc(n2)-c2cc(O)c(-c3nc(C(=O)NC(CNCCN(C)C)C(N)=O)cs3)nc2-c2csc(n2)[C@@H]2COC(=O)c3c4c5c(cccc5n3O)COC(=O)[C@@H](O[C@H]3C[C@](C)(O)[C@H](N(C)C)[C@H](C)O3)[C@@H](OC4)[C@H](NC(=O)c3csc1n3)c1nc(cs1)C(=O)N2 (stereo partly drawn) | 2 µg/mL (≈ 1.31 µM) | 4 µg/mL (≈ 2.62 µM) | 4.2 mg/kg |  | 0.03 µg/mL (≈ 0.0197 µM) |  | > 3800 µg/mL
4 | CO/C(C)=C1/NC(=O)[C@H]([C@@H](C)O)NC(=O)c2csc(n2)-c2cc(O)c(-c3nc(C(=O)NC(CN4CCOCC4)C(N)=O)cs3)nc2-c2csc(n2)[C@@H]2COC(=O)c3c4c5c(cccc5n3O)COC(=O)[C@@H](O[C@H]3C[C@](C)(O)[C@H](N(C)C)[C@H](C)O3)[C@@H](OC4)[C@H](NC(=O)c3csc1n3)c1nc(cs1)C(=O)N2 (stereo partly drawn) | 0.007 µg/mL (≈ 0.00459 µM) | 0.01 µg/mL (≈ 0.00656 µM) | 0.8 mg/kg |  | 0.01 µg/mL (≈ 0.00656 µM) |  | > 2100 µg/mL
5 | CO/C(C)=C1/NC(=O)[C@H]([C@@H](C)O)NC(=O)c2csc(n2)-c2cc(O)c(-c3nc(C(=O)NC(CNCCNC(C)=O)C(N)=O)cs3)nc2-c2csc(n2)[C@@H]2COC(=O)c3c4c5c(cccc5n3O)COC(=O)[C@@H](O[C@H]3C[C@](C)(O)[C@H](N(C)C)[C@H](C)O3)[C@@H](OC4)[C@H](NC(=O)c3csc1n3)c1nc(cs1)C(=O)N2 (stereo partly drawn) | 1 µg/mL (≈ 0.649 µM) | 4 µg/mL (≈ 2.6 µM) | > 10 mg/kg |  | 0.12 µg/mL (≈ 0.0779 µM) |  | > 3000 µg/mL
6 | CCOC(=O)CN1CCN(CC(NC(=O)c2csc(-c3nc4c(cc3O)-c3nc(cs3)C(=O)N[C@@H]([C@@H](C)O)C(=O)N/C(=C(\C)OC)c3nc(cs3)C(=O)N[C@@H]3c5nc(cs5)C(=O)N[C@@H](COC(=O)c5c6c7c(cccc7n5O)COC(=O)[C@@H](O[C@H]5C[C@](C)(O)[C@H](N(C)C)[C@H](C)O5)[C@H]3OC6)c3nc-4cs3)n2)C(N)=O)CC1 (stereo partly drawn) | 0.06 µg/mL (≈ 0.0373 µM) | 0.25 µg/mL (≈ 0.155 µM) |  |  | 0.007 µg/mL (≈ 0.00435 µM) |  | 
7 | CO/C(C)=C1/NC(=O)[C@H]([C@@H](C)O)NC(=O)c2csc(n2)-c2cc(O)c(-c3nc(C(=O)NC(CN4CCN(c5ccncc5)CC4)C(N)=O)cs3)nc2-c2csc(n2)[C@@H]2COC(=O)c3c4c5c(cccc5n3O)COC(=O)[C@@H](O[C@H]3C[C@](C)(O)[C@H](N(C)C)[C@H](C)O3)[C@@H](OC4)[C@H](NC(=O)c3csc1n3)c1nc(cs1)C(=O)N2 (stereo partly drawn) | 0.25 µg/mL (≈ 0.156 µM) | 0.5 µg/mL (≈ 0.312 µM) | 4.5 mg/kg |  | 0.06 µg/mL (≈ 0.0375 µM) | > 12500 µg/mL | 
8 | CO/C(C)=C1/NC(=O)[C@H]([C@@H](C)O)NC(=O)c2csc(n2)-c2cc(O)c(-c3nc(C(=O)NC(CN(C)CCCNc4ccncc4)C(N)=O)cs3)nc2-c2csc(n2)[C@@H]2COC(=O)c3c4c5c(cccc5n3O)COC(=O)[C@@H](O[C@H]3C[C@](C)(O)[C@H](N(C)C)[C@H](C)O3)[C@@H](OC4)[C@H](NC(=O)c3csc1n3)c1nc(cs1)C(=O)N2 (stereo partly drawn) | 1 µg/mL (≈ 0.624 µM) | 0.5 µg/mL (≈ 0.312 µM) | > 10 mg/kg |  | 0.25 µg/mL (≈ 0.156 µM) | > 3000 µg/mL | 
9 | CO/C(C)=C1/NC(=O)[C@H]([C@@H](C)O)NC(=O)c2csc(n2)-c2cc(O)c(-c3nc(C(=O)NC(CN4CCN(c5cccnc5)CC4)C(N)=O)cs3)nc2-c2csc(n2)[C@@H]2COC(=O)c3c4c5c(cccc5n3O)COC(=O)[C@@H](O[C@H]3C[C@](C)(O)[C@H](N(C)C)[C@H](C)O3)[C@@H](OC4)[C@H](NC(=O)c3csc1n3)c1nc(cs1)C(=O)N2 (stereo partly drawn) | 0.06 µg/mL (≈ 0.0375 µM) | 0.25 µg/mL (≈ 0.156 µM) | 1.43 mg/kg |  | 0.007 µg/mL (≈ 0.00437 µM) | > 2300 µg/mL | 
10 | CO/C(C)=C1/NC(=O)[C@H]([C@@H](C)O)NC(=O)c2csc(n2)-c2cc(O)c(-c3nc(C(=O)NC(CN(C)CCN4CCCCC4)C(N)=O)cs3)nc2-c2csc(n2)[C@@H]2COC(=O)c3c4c5c(cccc5n3O)COC(=O)[C@@H](O[C@H]3C[C@](C)(O)[C@H](N(C)C)[C@H](C)O3)[C@@H](OC4)[C@H](NC(=O)c3csc1n3)c1nc(cs1)C(=O)N2 (stereo partly drawn) | 0.12 µg/mL (≈ 0.076 µM) | 1 µg/mL (≈ 0.633 µM) | 3.2 mg/kg |  | 0.03 µg/mL (≈ 0.019 µM) | > 2700 µg/mL | 
11 | CO/C(C)=C1/NC(=O)[C@H]([C@@H](C)O)NC(=O)c2csc(n2)-c2cc(O)c(-c3nc(C(=O)NC(CN4CCN(CCN(C)C)CC4)C(N)=O)cs3)nc2-c2csc(n2)[C@@H]2COC(=O)c3c4c5c(cccc5n3O)COC(=O)[C@@H](O[C@H]3C[C@](C)(O)[C@H](N(C)C)[C@H](C)O3)[C@@H](OC4)[C@H](NC(=O)c3csc1n3)c1nc(cs1)C(=O)N2 (stereo partly drawn) | 0.5 µg/mL (≈ 0.314 µM) | 0.12 µg/mL (≈ 0.0752 µM) | 5.3 mg/kg | > 3800 µg/mL | 0.25 µg/mL (≈ 0.157 µM) |  | 
12 | CO/C(C)=C1/NC(=O)[C@H]([C@@H](C)O)NC(=O)c2csc(n2)-c2cc(O)c(-c3nc(C(=O)NC(CN4CCN(c5ccccn5)CC4)C(N)=O)cs3)nc2-c2csc(n2)[C@@H]2COC(=O)c3c4c5c(cccc5n3O)COC(=O)[C@@H](O[C@H]3C[C@](C)(O)[C@H](N(C)C)[C@H](C)O3)[C@@H](OC4)[C@H](NC(=O)c3csc1n3)c1nc(cs1)C(=O)N2 (stereo partly drawn) | 0.12 µg/mL (≈ 0.075 µM) | 0.25 µg/mL (≈ 0.156 µM) | < 0.62 mg/kg |  | 0.03 µg/mL (≈ 0.0187 µM) | > 2400 µg/mL | 
13 | CNCCN(C)CC(NC(=O)c1csc(-c2nc3c(cc2O)-c2nc(cs2)C(=O)N[C@@H]([C@@H](C)O)C(=O)N/C(=C(\C)OC)c2nc(cs2)C(=O)N[C@@H]2c4nc(cs4)C(=O)N[C@@H](COC(=O)c4c5c6c(cccc6n4O)COC(=O)[C@@H](O[C@H]4C[C@](C)(O)[C@H](N(C)C)[C@H](C)O4)[C@H]2OC5)c2nc-3cs2)n1)C(N)=O (stereo partly drawn) | 0.06 µg/mL (≈ 0.0393 µM) | 0.5 µg/mL (≈ 0.328 µM) | > 10 mg/kg |  | 0.001 µg/mL (≈ 0.000655 µM) | > 2800 µg/mL | 
14 | CO/C(C)=C1/NC(=O)[C@H]([C@@H](C)O)NC(=O)c2csc(n2)-c2cc(O)c(-c3nc(C(=O)NC(CN4CCN(CCOCCO)CC4)C(N)=O)cs3)nc2-c2csc(n2)[C@@H]2COC(=O)c3c4c5c(cccc5n3O)COC(=O)[C@@H](O[C@H]3C[C@](C)(O)[C@H](N(C)C)[C@H](C)O3)[C@@H](OC4)[C@H](NC(=O)c3csc1n3)c1nc(cs1)C(=O)N2 (stereo partly drawn) | 0.5 µg/mL (≈ 0.31 µM) | 1 µg/mL (≈ 0.62 µM) | 1.34 mg/kg |  | 0.12 µg/mL (≈ 0.0745 µM) |  | > 3000 µg/mL

Source: ChEMBL document CHEMBL1138025, “Nocathiacin I analogues: synthesis, in vitro and in vivo biological activity of novel semi-synthetic thiazolyl peptide antibiotics” (Bioorg Med Chem Lett, 2004)
